Results published in PubChem BioAssay AID1745844 (Carcinogenic Potency Database (CPDB), 2022).
The source made the active and inactive calls. How the calls were made is not given here.

System: rodent lifetime carcinogenesis bioassay, tumor incidence TD50
Test: chronic cancer bioassays in animals – CPDB, compiled studies (AID 1745844)

ClC(Cl)=C(Cl)Cl
TD50 (mouse, strain B6C3F1, females, by gavage, site: any site (literature study), lesion: several types, types named in the paper, dosed 78 weeks, study length 90 weeks): 98.1 mg/kg/day | TD50 (mouse, strain B6C3F1, females, by gavage, site: liver, lesion: hepatocellular adenoma + hepatocellular carcinoma + neoplastic nodule, dosed 78 weeks, study length 90 weeks): 75.6 mg/kg/day | TD50 (mouse, strain B6C3F1, females, by gavage, site: liver, lesion: hepatocellular carcinoma, dosed 78 weeks, study length 90 weeks): 75.6 mg/kg/day | TD50 (mouse, strain B6C3F1, females, by gavage, site: lung, lesion: alveolar/bronchiolar adenoma + alveolar/bronchiolar carcinoma, dosed 78 weeks, study length 90 weeks): 2950 mg/kg/day | TD50 (mouse, strain B6C3F1, females, inhaled, site: any site (literature study), lesion: several types, types named in the paper, dosed 103 weeks, study length 104 weeks): 211 mg/kg/day | TD50 (mouse, strain B6C3F1, females, inhaled, site: liver, lesion: hepatocellular adenoma + hepatocellular carcinoma + neoplastic nodule, dosed 103 weeks, study length 104 weeks): 188 mg/kg/day | TD50 (mouse, strain B6C3F1, females, inhaled, site: liver, lesion: hepatocellular adenoma + hepatocellular carcinoma, dosed 103 weeks, study length 104 weeks): 188 mg/kg/day | TD50 (mouse, strain B6C3F1, females, inhaled, site: liver, lesion: hepatocellular carcinoma, dosed 103 weeks, study length 104 weeks): 200 mg/kg/day | TD50 (mouse, strain B6C3F1, males, by gavage, site: any site (literature study), lesion: several types, types named in the paper, dosed 78 weeks, study length 90 weeks): 160 mg/kg/day | TD50 (mouse, strain B6C3F1, males, by gavage, site: liver, lesion: hepatocellular adenoma + hepatocellular carcinoma + neoplastic nodule, dosed 78 weeks, study length 90 weeks): 123 mg/kg/day | TD50 (mouse, strain B6C3F1, males, by gavage, site: liver, lesion: hepatocellular carcinoma, dosed 78 weeks, study length 90 weeks): 123 mg/kg/day | TD50 (mouse, strain B6C3F1, males, inhaled, site: any site (literature study), lesion: several types, types named in the paper, dosed 103 weeks, study length 104 weeks): 225 mg/kg/day | TD50 (mouse, strain B6C3F1, males, inhaled, site: liver, lesion: hepatocellular adenoma + hepatocellular carcinoma + neoplastic nodule, dosed 103 weeks, study length 104 weeks): 190 mg/kg/day | TD50 (mouse, strain B6C3F1, males, inhaled, site: liver, lesion: hepatocellular adenoma + hepatocellular carcinoma, dosed 103 weeks, study length 104 weeks): 190 mg/kg/day | TD50 (mouse, strain B6C3F1, males, inhaled, site: liver, lesion: hepatocellular adenoma, dosed 103 weeks, study length 104 weeks): 668 mg/kg/day | TD50 (mouse, strain B6C3F1, males, inhaled, site: liver, lesion: hepatocellular carcinoma, dosed 103 weeks, study length 104 weeks): 162 mg/kg/day | TD50 (mouse, strain B6C3F1, males, inhaled, site: lung, lesion: alveolar/bronchiolar adenoma + alveolar/bronchiolar carcinoma, dosed 103 weeks, study length 104 weeks): 6050 mg/kg/day | TD50 (mouse, strain B6C3F1, males, inhaled, site: mesenteric lymph node + multiple organs + spleen + subcutaneous tissue, lesion: malignant lymphoma, NOS, dosed 103 weeks, study length 104 weeks): 681 mg/kg/day | TD50 (mouse, strain Crj:BDF1, females, inhaled, site: liver, lesion: hepatocellular adenoma, dosed 104 weeks, study length 104 weeks): 560 mg/kg/day | TD50 (mouse, strain Crj:BDF1, females, inhaled, site: liver, lesion: hepatocellular carcinoma, dosed 104 weeks, study length 104 weeks): 1420 mg/kg/day | TD50 (mouse, strain Crj:BDF1, females, inhaled, site: liver, lesion: several types, types named in the paper, dosed 104 weeks, study length 104 weeks): 396 mg/kg/day | TD50 (mouse, strain Crj:BDF1, males, inhaled, site: Harderian gland, lesion: adenoma, dosed 104 weeks, study length 104 weeks): 2330 mg/kg/day | TD50 (mouse, strain Crj:BDF1, males, inhaled, site: liver, lesion: hepatocellular adenoma, dosed 104 weeks, study length 104 weeks): 602 mg/kg/day | TD50 (mouse, strain Crj:BDF1, males, inhaled, site: liver, lesion: hepatocellular carcinoma, dosed 104 weeks, study length 104 weeks): 555 mg/kg/day | TD50 (mouse, strain Crj:BDF1, males, inhaled, site: liver, lesion: several types, types named in the paper, dosed 104 weeks, study length 104 weeks): 257 mg/kg/day | TD50 (rat, strain F344/DuCrj, females, inhaled, site: spleen, lesion: mononuclear-cell leukemia, dosed 104 weeks, study length 104 weeks): 1080 mg/kg/day | TD50 (rat, strain F344/DuCrj, males, inhaled, site: liver, lesion: hepatocellular adenoma, dosed 104 weeks, study length 104 weeks): 28300 mg/kg/day | TD50 (rat, strain F344/DuCrj, males, inhaled, site: spleen, lesion: mononuclear-cell leukemia, dosed 104 weeks, study length 104 weeks): 257 mg/kg/day | TD50 (rat, strain Fischer 344, females, inhaled, site: any site (literature study), lesion: several types, types named in the paper, dosed 103 weeks, study length 104 weeks): 869 mg/kg/day | TD50 (rat, strain Fischer 344, females, inhaled, site: multiple organs + spleen, lesion: mononuclear-cell leukemia, dosed 103 weeks, study length 104 weeks): 287 mg/kg/day | TD50 (rat, strain Fischer 344, males, inhaled, site: any site (literature study), lesion: several types, types named in the paper, dosed 103 weeks, study length 104 weeks): 77.7 mg/kg/day | TD50 (rat, strain Fischer 344, males, inhaled, site: kidney + liver + multiple organs + spleen, lesion: tubular-cell adenoma + tubular-cell adenocarcinoma + mononuclear-cell leukemia, dosed 103 weeks, study length 104 weeks): 90.8 mg/kg/day | TD50 (rat, strain Fischer 344, males, inhaled, site: kidney, lesion: tubular-cell adenoma + tubular-cell adenocarcinoma, dosed 103 weeks, study length 104 weeks): 504 mg/kg/day | TD50 (rat, strain Fischer 344, males, inhaled, site: liver + multiple organs + spleen, lesion: mononuclear-cell leukemia, dosed 103 weeks, study length 104 weeks): 101 mg/kg/day | TD50 (rat, strain Fischer 344, males, inhaled, site: liver, lesion: hepatocellular adenoma + hepatocellular carcinoma + neoplastic nodule, dosed 103 weeks, study length 104 weeks): 368 mg/kg/day | TD50 (rat, strain Fischer 344, males, inhaled, site: testis, lesion: interstitial-cell tumor, dosed 103 weeks, study length 104 weeks): 68.6 mg/kg/day | TD50 (rat, strain Osborne-Mendel, females, by gavage, site: any site (literature study), lesion: several types, types named in the paper, dosed 78 weeks, study length 110 weeks): 1710 mg/kg/day | TD50 (rat, strain Osborne-Mendel, males, by gavage, site: any site (literature study), lesion: several types, types named in the paper, dosed 78 weeks, study length 112 weeks): 3020 mg/kg/day

CC(C(O)c1ccccc1)N(C)N=O (centres undefined)
TD50 (rat, strain Sprague-Dawley, males, by gavage, site: any site (literature study), lesion: several types, types named in the paper, dosed 104 weeks, study length 104 weeks): 40 mg/kg/day | TD50 (rat, strain Sprague-Dawley, males, by gavage, site: forestomach, lesion: papilloma, dosed 104 weeks, study length 104 weeks): 239 mg/kg/day | TD50 (rat, strain Sprague-Dawley, males, by gavage, site: forestomach, lesion: squamous-cell carcinoma, dosed 104 weeks, study length 104 weeks): 740 mg/kg/day | TD50 (rat, strain Sprague-Dawley, males, by gavage, site: liver, lesion: hepatocellular carcinoma, dosed 104 weeks, study length 104 weeks): 138 mg/kg/day | TD50 (rat, strain Sprague-Dawley, males, by gavage, site: liver, lesion: several types, types named in the paper, dosed 104 weeks, study length 104 weeks): 95.2 mg/kg/day | TD50 (rat, strain Sprague-Dawley, males, by gavage, site: lung, lesion: several types, types named in the paper, dosed 104 weeks, study length 104 weeks): 217 mg/kg/day

c1ccc2cc(Nc3ccc(Nc4ccc5ccccc5c4)cc3)ccc2c1
TD50 (mouse, strain B6AKF1, females, oral dosing, site: any site (literature study), lesion: several types, types named in the paper, dosed 76 weeks, study length 76 weeks): 63.8 mg/kg/day (inactive) | carcinogen call (mouse, strain B6AKF1, females, oral dosing, site: liver, lesion: hepatoma, dosed 76 weeks, study length 76 weeks): negative (inactive) | TD50 (mouse, strain B6AKF1, females, oral dosing, site: lung, lesion: adenoma, dosed 76 weeks, study length 76 weeks): 221 mg/kg/day (inactive) | carcinogen call (mouse, strain B6AKF1, males, oral dosing, site: any site (literature study), lesion: several types, types named in the paper, dosed 76 weeks, study length 76 weeks): negative (inactive) | carcinogen call (mouse, strain B6AKF1, males, oral dosing, site: liver, lesion: hepatoma, dosed 76 weeks, study length 76 weeks): negative (inactive) | carcinogen call (mouse, strain B6AKF1, males, oral dosing, site: lung, lesion: adenoma, dosed 76 weeks, study length 76 weeks): negative (inactive) | TD50 (mouse, strain B6C3F1, females, oral dosing, site: any site (literature study), lesion: several types, types named in the paper, dosed 76 weeks, study length 76 weeks): 235 mg/kg/day (inactive) | carcinogen call (mouse, strain B6C3F1, females, oral dosing, site: liver, lesion: hepatoma, dosed 76 weeks, study length 76 weeks): negative (inactive) | carcinogen call (mouse, strain B6C3F1, females, oral dosing, site: lung, lesion: several types, types named in the paper, dosed 76 weeks, study length 76 weeks): negative (inactive) | TD50 (mouse, strain B6C3F1, males, oral dosing, site: any site (literature study), lesion: several types, types named in the paper, dosed 76 weeks, study length 76 weeks): 25.9 mg/kg/day (inactive) | TD50 (mouse, strain B6C3F1, males, oral dosing, site: liver, lesion: hepatoma, dosed 76 weeks, study length 76 weeks): 59.4 mg/kg/day (inactive) | TD50 (mouse, strain B6C3F1, males, oral dosing, site: lung, lesion: adenoma, dosed 76 weeks, study length 76 weeks): 192 mg/kg/day (inactive)

CC1CC(=O)O1 (centres undefined)
TD50 (rat, strain Eastern Sprague-Dawley, females, by gavage, site: forestomach, lesion: squamous-cell carcinoma, dosed 70 weeks, study length 70 weeks): 13.8 mg/kg/day

CCC[CH2][Sn]([CH2]CCC)([CH2]CCC)[O][Sn]([CH2]CCC)([CH2]CCC)[CH2]CCC
TD50 (rat, strain Wistar, females, in feed, site: adrenal medulla, lesion: pheochromocytoma, dosed 106 weeks, study length 106 weeks): 1.79 mg/kg/day | TD50 (rat, strain Wistar, females, in feed, site: pituitary gland, anterior, lesion: one or several types, types not named, dosed 106 weeks, study length 106 weeks): 3.73 mg/kg/day | TD50 (rat, strain Wistar, males, in feed, site: adrenal medulla, lesion: pheochromocytoma, dosed 106 weeks, study length 106 weeks): 1.93 mg/kg/day | TD50 (rat, strain Wistar, males, in feed, site: pituitary gland, anterior, lesion: one or several types, types not named, dosed 106 weeks, study length 106 weeks): 1.9 mg/kg/day

O=S(O)O
TD50 (mouse, strain ICR/Jcl, females, in drinking water, site: liver, lesion: hemangioendothelial sarcoma, dosed 104 weeks, study length 104 weeks): 204000 mg/kg/day (inactive) | TD50 (mouse, strain ICR/Jcl, females, in drinking water, site: lung, lesion: adenocarcinoma, dosed 104 weeks, study length 104 weeks): 100000 mg/kg/day (inactive) | TD50 (mouse, strain ICR/Jcl, females, in drinking water, site: lung, lesion: adenoma, dosed 104 weeks, study length 104 weeks): 33600 mg/kg/day (inactive) | carcinogen call (mouse, strain ICR/Jcl, males, in drinking water, site: liver, lesion: one or several types, types not named, dosed 104 weeks, study length 104 weeks): negative (inactive) | TD50 (mouse, strain ICR/Jcl, males, in drinking water, site: lung, lesion: adenocarcinoma, dosed 104 weeks, study length 104 weeks): 84800 mg/kg/day (inactive) | TD50 (mouse, strain ICR/Jcl, males, in drinking water, site: lung, lesion: adenoma, dosed 104 weeks, study length 104 weeks): 84800 mg/kg/day (inactive)

Nc1ccc(Oc2ccc(N)c(N)c2)cc1
TD50 (mouse, strain ICR/Jcl, males, in feed, site: liver, lesion: hepatoma, dosed 52 weeks, study length 52 weeks): 13.3 mg/kg/day

Cc1cc2c(nc1N)[nH]c1ccccc12
TD50 (mouse, strain CDF1, females, in feed, site: blood vessels, lesion: hemangioendothelial sarcoma, dosed 84 weeks, study length 84 weeks): 38.6 mg/kg/day | TD50 (mouse, strain CDF1, females, in feed, site: liver, lesion: hepatocellular adenoma, dosed 84 weeks, study length 84 weeks): 118 mg/kg/day | TD50 (mouse, strain CDF1, females, in feed, site: liver, lesion: hepatocellular carcinoma, dosed 84 weeks, study length 84 weeks): 98.9 mg/kg/day | TD50 (mouse, strain CDF1, females, in feed, site: liver, lesion: several types, types named in the paper, dosed 84 weeks, study length 84 weeks): 38.6 mg/kg/day | TD50 (mouse, strain CDF1, females, in feed, site: lung, lesion: adenoma, dosed 84 weeks, study length 84 weeks): 1840 mg/kg/day | TD50 (mouse, strain CDF1, males, in feed, site: blood vessels, lesion: hemangioendothelial sarcoma, dosed 73 weeks, study length 73 weeks): 15.6 mg/kg/day | TD50 (mouse, strain CDF1, males, in feed, site: liver, lesion: hepatocellular adenoma, dosed 73 weeks, study length 73 weeks): 90.9 mg/kg/day | TD50 (mouse, strain CDF1, males, in feed, site: liver, lesion: hepatocellular carcinoma, dosed 73 weeks, study length 73 weeks): 127 mg/kg/day | TD50 (mouse, strain CDF1, males, in feed, site: liver, lesion: several types, types named in the paper, dosed 73 weeks, study length 73 weeks): 43.5 mg/kg/day | TD50 (mouse, strain CDF1, males, in feed, site: lung, lesion: adenoma, dosed 73 weeks, study length 73 weeks): 1180 mg/kg/day | TD50 (rat, strain F344/DuCrj, males, in feed, site: liver, lesion: hepatocellular carcinoma, dosed 100 weeks, study length 100 weeks): 11.7 mg/kg/day | TD50 (rat, strain F344/DuCrj, males, in feed, site: pancreas, lesion: acinar-cell adenoma, dosed 100 weeks, study length 100 weeks): 8.7 mg/kg/day | TD50 (rat, strain F344/DuCrj, males, in feed, site: pancreatic islets, lesion: islet-cell adenoma, dosed 100 weeks, study length 100 weeks): 48.1 mg/kg/day | TD50 (rat, strain F344/DuCrj, males, in feed, site: salivary gland, lesion: fibrosarcoma, dosed 100 weeks, study length 100 weeks): 73.5 mg/kg/day | TD50 (rat, strain F344/DuCrj, males, in feed, site: subcutaneous tissue, lesion: fibroma, dosed 100 weeks, study length 100 weeks): 6.7 mg/kg/day | TD50 (rat, strain F344/DuCrj, males, in feed, site: urinary bladder, lesion: transitional-cell carcinoma, dosed 100 weeks, study length 100 weeks): 28.6 mg/kg/day
